Measurements reported in patent publication US20090004497A1, “Wood Preservative Formulations Comprising Rh-287” (priority 2006, published 2009).
Where “and” joins values, the source holds several entries; their conditions need not be identical. Equal entries are not always repeated.

Tested on: decay organisms
Experiment: soil contact veneer exposure test (Scots pine sapwood veneers part buried in damp compost, pulled by hand until failure)
Settings: for Half lives for chemicals tested as solutions in acetone, With RH-287 added / Half lives for chemicals tested as solutions in acetone, No addition (average time for failure to occur) / Half lives, With RH-287 added, expected value in parentheses / positive synergy: actual average time to failure compared with the estimated one: Example 1; for Half lives for chemicals tested as solutions in acetone, With RH-287 added: 1.00% fungicide plus 1.00% RH-287 in acetone; for Half lives for chemicals tested as solutions in acetone, No addition (average time for failure to occur): 2.00% fungicide alone in acetone, dip treated veneers, 6 replicates, compost about 30° C.; for Half lives, With RH-287 added, expected value in parentheses: expected additive value for 1.00% fungicide plus 1.00% RH-287, midway between the two 2.00% values; for positive synergy: actual average time to failure compared with the estimated one: combination of RH-287 with co-biocide, 1.00% each in acetone
Text: It is preferable that the thickness of the veneers be greater than 0.1 mm, as veneers of lesser thickness can often be pulled apart by hand without undergoing exposure to decay organisms. Veneers which are thicker than 0.4 may take an excessive amount of time to fail the exposure test. In one embodiment, the thickness of the veneers is about 0.2 mm and the wood is the sapwood of the Scots pine (Pinus sylvestris). Other woods and thicknesses can be used. […] For example, 0.2 mm thick Scots pine sapwood veneers which are exposed as outlined below generally fail in 5 weeks or less. An example of convenient width and length dimensions are 15×50 mm. However, width and length are not critical, although very large or small length or width dimensions may be difficult to handle.
Accordingly, the test of the present invention comprises testing the integrity of a veneer after exposure to a decay-inducing environment. In one embodiment, this environment is damp compost in which decay organisms are present and water is present at just above the water holding capacity of the compost. If desired, other media can be used, and the test can be conducted at water contents which are below, at, or above the water-holding capacity of the media.
In general, the integrity of the veneer is inversely related to the length of exposure to the decay promoting environment. The integrity of the veneer can be tested by applying a force to the veneer and noting whether or not the veneer breaks. Thus, if wood preservative agents are applied to the veneers, these veneers would be expected to withstand longer exposure to the environment without breaking compared to control veneers without breaking.
The force applied to the veneers is preferably a force which pulls the two ends in opposite directions. The force can be applied by the use of an instrument or manually. If there is significant decay the veneer will break, generally near the junction between the portion submerged in the decay accelerating medium and the portion exposed to air. If the force is applied manually, it is preferable that the same individual conduct the test at the various exposure time points.
Veneers of Scots pine Pinus sylvestris (0.2 mm thick, 50×15 mm) sapwood are cut from test blocks as described in EN 113, a known standard test method in the European timber industry. The veneers were cut such that both late wood and early wood were present in each veneer. RH-287 was tested in combination with the following biocides: chlorothalonil, fenpropimorph, propiconazole, copper ( as copper naphthenate ), tridemorph, fenarimol, cyproconazole, Imazalil and dichlorophen.
Test solutions were prepared and sets of veneers were dip treated such that there were 6 replicate veneers for each treatment under investigation. Additionally six veneers were dip treated in deionised water to act as water controls. Being thin, the timber veneers dried quickly. Plastic containers (approximately 350×220 mm by at least 60 mm high) were part filled with John Innes Number 2 potting compost at a little above its water holding capacity. The veneers for a particular test were placed in six rows within a container such that approximately half the veneer was below the compost and half above. The veneers were placed in the compost such than those given a particular treatment were distributed throughout the container and were not grouped together. The containers, compost and veneers were weighed then incubated at about 30° C. and near 100% relative humidity in an incubator. Each week during the test the assembly was reweighed and deionised water added to bring it back to its original mass. After 3 weeks each veneer was examined in turn. It was held between the fingers at each end and pulled to see if it could be broken. If it could be pulled apart a failure was recorded. If the veneer was sound, this was recorded and the veneer was returned to its original position. […]

[1] = Example 3, solutions in acetone
[2] = Example 4, solutions in acetone

| Molecule | Half lives for chemicals tested as solutions in acetone, With RH-287 added [weeks] | Half lives for chemicals tested as solutions in acetone, No addition (average time for failure to occur) | Half lives, With RH-287 added, expected value in parentheses | further results |
| --- | --- | --- | --- | --- |
| OC(c1ccc(Cl)cc1)(c1cncnc1)c1ccccc1Cl (racemic) [Fenarimol, (±)-2,4′-dichloro-α-(pyrimidin-5-yl) benzhydryl alcohol] | 17.17 | 5.50 weeks | (15.34 weeks) | – |
| CC(Cc1ccc(C(C)(C)C)cc1)CN1C[C@@H](C)O[C@@H](C)C1 (mixture of isomers) [Fenpropimorph, (±)-cis-4-[3-(4-tert-butylphenyl)-2-nethylpropyl]-2,6-dimethyl=morpholine] | 21.17 | 4.50 weeks | (14.84 weeks) | positive synergy: actual average time to failure compared with the estimated one: most marked |
| CCCC1COC(Cn2cncn2)(c2ccc(Cl)cc2Cl)O1 (racemic) [Propiconazole, (±)-1-[2-(2,4-dichlorophenyl)-4-propyl-1,3-dioxolan-2-ylmethyl-=1H-1,2,4-triazol] | 20.50 | 4.50 weeks | (14.84 weeks) | – |
| N#Cc1c(Cl)c(Cl)c(Cl)c(C#N)c1Cl [Chlorothalonil, tetrachloroisophthalonitrile] | 22.50 | 12.5 weeks and 12.50 weeks | – | Half lives for chemicals tested as solutions in acetone, No addition (average time for failure to occur) (listed as chlorothalonil): 12.5 weeks; Half lives, With RH-287 added, expected value in parentheses (listed as chlorothalonil): about 18.84 weeks |
| CC(C1CC1)C(O)(Cn1cncn1)c1ccc(Cl)cc1 (stereo not drawn) [Cyproconazole, (2RS,3RS;2RS,3SR)-2-(4-chlorophenyl)-3-cyclopropyl-1-=(1H-1,2,4-trazol-1-yl)butan-2-ol] | 22.00 | 5.17 weeks | (15.17 weeks) | positive synergy: actual average time to failure compared with the estimated one: most marked |
| Oc1ccc(Cl)cc1Cc1cc(Cl)ccc1O [Dichlorophen, 4.4′-dichloro-2,2′-methylenediphenol] | 24.17 | 16.00 weeks | (20.59 weeks) | Half life for 0.8% fungicide plus 0.8% RH-287, expected value in parentheses (Example 3, expected additive value): {13.83 weeks}; Half life for 0.8% fungicide plus 0.8% RH-287 [1]: 15.33 weeks; Half life for fungicide at 0.8% active ingredient [1]: 8.67 weeks; Half life for fungicide at 1.60% active ingredient (ai) [1]: 10.83 weeks |
| CCCCCCCCn1sc(Cl)c(Cl)c1=O [RH-287, 4,5 dichloro-2-n-octyl-4-isothiazolin-3-one] | – | 25.17 weeks | – | Half life for fungicide at 2.00% active ingredient (ai) (Example 2, solutions in acetone): 22.50 weeks; Half life for fungicide at 0.8% active ingredient [1]: 10.00 weeks; Half life for fungicide at 1.60% active ingredient (ai) [1]: 16.83 weeks; Half life for fungicide at 0.8% active ingredient [2]: 12.17 weeks; Half life for fungicide at 1.60% active ingredient (ai) [2]: 16.67 weeks; relationship between concentration of RH-287 and veneer half life (Example 5, up to about 2% RH-287 in acetone (FIG. 1)): corresponding increase in the half life |
| CCCCCCCCCCCCCN1CC(C)OC(C)C1 (stereo not shown) [Tridemorph, 4-alkyl-2,6-dimethylmorpholine] | 17.50 | 4.33 weeks | (14.75 weeks) | – |
| Copper naphthenate [Copper (as Copper Naphthenate)] | 21.50 | 16.67 weeks | – | – |
